From patent publication US11629155B2, “Small molecule antagonist compound TAC5 series having toll-like receptor 3/7/8/9 inhibitory function” (AJOU UNIVERSITY INDUSTRY-ACADEMIC COOPERATION FOUNDATION, priority 2018, dated 2023)

Key:
TLR7 = target: T1, TLR7 (Homo sapiens, UniProt Q9NYK1); assay: IMQ, R848 or CL075-induced TNF-α or IL-6 secretion in THP1-derived macrophages; type: cell-based; settings: R848 or CL075, dose-dependent manner, FIGS. 4E-4G
T1 construct: endogenous in cells; host or cells: THP1-derived macrophages (PMA-differentiated)
T1 sequence (Q9NYK1 27-1049): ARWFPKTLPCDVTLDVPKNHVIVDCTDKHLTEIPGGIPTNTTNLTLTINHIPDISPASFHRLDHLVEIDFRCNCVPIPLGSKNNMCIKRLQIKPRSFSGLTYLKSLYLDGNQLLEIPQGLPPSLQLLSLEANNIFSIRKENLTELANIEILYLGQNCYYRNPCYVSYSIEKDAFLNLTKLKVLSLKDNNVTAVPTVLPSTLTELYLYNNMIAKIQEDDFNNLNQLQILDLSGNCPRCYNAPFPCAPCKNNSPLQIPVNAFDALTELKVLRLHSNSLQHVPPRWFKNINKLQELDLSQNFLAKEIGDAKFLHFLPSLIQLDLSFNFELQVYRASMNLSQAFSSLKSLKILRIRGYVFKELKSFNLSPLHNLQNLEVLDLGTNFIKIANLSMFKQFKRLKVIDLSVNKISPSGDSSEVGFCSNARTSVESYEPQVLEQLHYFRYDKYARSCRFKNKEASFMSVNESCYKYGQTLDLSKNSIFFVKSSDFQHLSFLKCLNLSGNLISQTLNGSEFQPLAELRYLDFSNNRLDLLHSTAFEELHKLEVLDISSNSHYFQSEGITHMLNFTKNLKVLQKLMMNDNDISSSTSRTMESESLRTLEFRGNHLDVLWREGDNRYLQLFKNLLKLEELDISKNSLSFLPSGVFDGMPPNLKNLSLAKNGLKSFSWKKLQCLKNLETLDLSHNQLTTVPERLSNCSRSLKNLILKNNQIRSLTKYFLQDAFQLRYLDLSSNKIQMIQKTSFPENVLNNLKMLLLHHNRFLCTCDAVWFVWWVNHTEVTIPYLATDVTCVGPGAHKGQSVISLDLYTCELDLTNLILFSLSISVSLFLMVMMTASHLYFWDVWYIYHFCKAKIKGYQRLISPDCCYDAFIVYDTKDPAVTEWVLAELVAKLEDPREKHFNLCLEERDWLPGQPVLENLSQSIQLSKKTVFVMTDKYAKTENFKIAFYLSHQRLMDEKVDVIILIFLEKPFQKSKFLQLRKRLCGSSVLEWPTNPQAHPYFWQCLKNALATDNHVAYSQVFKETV

TLR2/6 = target: T2, TLR2/6 (Homo sapiens, UniProt O60603+Q9Y2C9); assay: FSL-1-induced TNF-α secretion (ELISA) in THP1-derived macrophages; type: cell-based; settings: 1 to 50 μM, FIG. 4D
T2 construct: endogenous in cells; host or cells: THP1-derived macrophages (PMA-differentiated)
T2 sequence (O60603 21-784): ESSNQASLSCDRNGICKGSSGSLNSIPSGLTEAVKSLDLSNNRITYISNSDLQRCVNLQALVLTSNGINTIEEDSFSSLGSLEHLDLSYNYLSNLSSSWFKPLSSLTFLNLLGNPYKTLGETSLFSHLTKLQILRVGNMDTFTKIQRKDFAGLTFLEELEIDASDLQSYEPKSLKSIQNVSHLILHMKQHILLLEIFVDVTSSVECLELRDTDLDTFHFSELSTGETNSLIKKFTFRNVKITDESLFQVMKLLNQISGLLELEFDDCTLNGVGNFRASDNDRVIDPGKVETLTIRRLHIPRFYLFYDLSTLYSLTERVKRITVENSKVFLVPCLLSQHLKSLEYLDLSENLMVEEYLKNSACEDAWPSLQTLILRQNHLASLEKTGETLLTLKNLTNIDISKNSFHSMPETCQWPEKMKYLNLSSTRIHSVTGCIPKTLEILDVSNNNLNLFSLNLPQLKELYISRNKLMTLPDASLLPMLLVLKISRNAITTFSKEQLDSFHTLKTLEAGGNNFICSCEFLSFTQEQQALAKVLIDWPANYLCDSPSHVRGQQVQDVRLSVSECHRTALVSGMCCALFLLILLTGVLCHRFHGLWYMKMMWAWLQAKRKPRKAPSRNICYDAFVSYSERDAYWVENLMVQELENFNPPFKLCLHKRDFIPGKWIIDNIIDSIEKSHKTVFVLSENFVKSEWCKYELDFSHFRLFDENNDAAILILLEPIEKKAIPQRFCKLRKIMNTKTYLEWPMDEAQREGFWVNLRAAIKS
T2 sequence (Q9Y2C9 32-796): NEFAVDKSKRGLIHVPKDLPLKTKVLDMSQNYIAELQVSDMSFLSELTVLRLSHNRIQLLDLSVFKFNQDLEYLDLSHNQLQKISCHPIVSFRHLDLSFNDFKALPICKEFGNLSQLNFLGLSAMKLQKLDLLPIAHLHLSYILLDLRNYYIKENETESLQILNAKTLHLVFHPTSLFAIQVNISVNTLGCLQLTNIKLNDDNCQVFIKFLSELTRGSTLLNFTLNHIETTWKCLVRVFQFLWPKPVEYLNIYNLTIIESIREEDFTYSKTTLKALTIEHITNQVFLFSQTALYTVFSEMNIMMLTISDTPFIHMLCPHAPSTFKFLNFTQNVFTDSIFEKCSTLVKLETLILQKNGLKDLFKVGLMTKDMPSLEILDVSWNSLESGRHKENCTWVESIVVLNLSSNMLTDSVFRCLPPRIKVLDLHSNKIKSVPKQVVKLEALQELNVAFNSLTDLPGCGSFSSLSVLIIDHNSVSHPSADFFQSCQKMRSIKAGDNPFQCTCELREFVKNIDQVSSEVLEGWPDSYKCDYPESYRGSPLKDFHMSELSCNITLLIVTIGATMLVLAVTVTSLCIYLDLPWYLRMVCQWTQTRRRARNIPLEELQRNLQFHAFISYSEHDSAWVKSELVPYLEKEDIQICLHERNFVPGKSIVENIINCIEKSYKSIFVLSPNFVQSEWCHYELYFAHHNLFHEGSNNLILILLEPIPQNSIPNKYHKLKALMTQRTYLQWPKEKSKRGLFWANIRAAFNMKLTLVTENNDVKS

TLR7-mediated TNF-α or IL-6 secretion (TLR7): significantly inhibited
TLR2/6 (FSL-1)-mediated TNF-α secretion (TLR2/6): did not block
SMILES: Nc1cccc(COc2cccnc2N)c1 [TAC5-a, 3-((3-aminobenzyl)oxy)pyridin-2-amine]
